In patent publication US20260072027A1, “Peptides And Method” (Queen Mary University of London, priority 2022, published 2026):

Test system: CD8+ T-cells (PBMCs)
Test: In vitro peptide stimulation and T-cell proliferation assay, CD8+
Format: cell-based, human
Conditions: for CD8+ mean SI (stimulation index): Study cohort 2
Outline: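 CellTrace Violet-labelled fresh PBMCs from type 1 diabetic and healthy donors cultured 7 days in 5% autologous plasma with or without 20 μg/ml insulin peptides. Proliferation measured by flow cytometry as dye dilution within the CD4+ or CD8+ subset. Stimulation index = % proliferation stimulated/% unstimulated.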

“LVEALYLVCGERGFFYTPKT [insulin B:11-30 native peptide]” was tested, and the “CD8+ T-cell response, subjects with SI > 1 (%)” value (Controls (N = 11)) was “(63.6%)”, the “CD8+ T-cell response, subjects with SI > 3 (%)” value (Controls (N = 11)) was “(45.5%)” and the “CD8+ T-cell response, subjects with SI > 5 (%)” value (Controls (N = 11)) was “(27.3%)”. The “CD8+ T-cell response, subjects with SI > 10 (%)” value (Controls (N = 11)) was “(18.2%)”, the “CD8+ T-cell response, subjects with SI > 1 (%)” value (Controls (N = 11), listed as Nt-INSP-4) was 63.6% and the “CD8+ T-cell response, subjects with SI > 1 (%)” value (Type 1 diabetes (N = 18)) was “(72.2%)”. For the same sequence, the “CD8+ T-cell response, subjects with SI > 3 (%)” value (Type 1 diabetes (N = 18)) was “(55.6%)”, the “CD8+ T-cell response, subjects with SI > 5 (%)” value (Type 1 diabetes (N = 18)) was “(38.9%)” and the “CD8+ T-cell response, subjects with SI > 10 (%)” value (Type 1 diabetes (N = 18)) was “(33.3%)”. The “CD8+ T-cell response, subjects with SI > 1 (%)” value (Type 1 diabetes (N = 18), listed as Nt-INSP-4) was 72.2%, the “CD8+ mean SI (stimulation index)” value (controls) was 5.948±3.125 and the “CD8+ mean SI (stimulation index)” value (type 1 diabetes) was 405.8±325.5.
